Source: US11696914B1 (priority 2019, dated 2023)
Like-named read-outs stand apart in the source and are kept apart here.

Experiments:
[1] = tested on: Ebola virus/H.sapiens-tc/COD/1976/Yambuku-Mayinga (EBOV/May); test: microbe, parasite or virus in culture; assay type: cell-based; settings: Zaire ebolavirus, HeLa
Nipah virus = test: microbe, parasite or virus in culture; assay type: cell-based; settings: Henipavirus nipahense, read-out: IC50 against Nipah virus
Tacaribe virus = test: microbe, parasite or virus in culture; assay type: cell-based; settings: Mammarenavirus tacaribeense, Vero
[2] = tested on: Venezuelian equine encephalitis virus; test: microbe, parasite or virus in culture; assay type: cell-based; settings: Venezuelan equine encephalitis virus, Vero 76
[3] = mouse, microsomes
[4] = male, Hartley, guinea pig, in vivo
in vitro = settings: dog

COc1ccc2nc3cc(Cl)ccc3c(Nc3cc(CN4CCCC4)c(O)c(CN4CCCC4)c3)c2n1 [Pyronaridine, 4-[(7-Chloro-2-methoxybenzo[b][1,5]naph-thyridin-10-yl)amino]-2,6-bis(1-pyrrolidinylmethyl)phenol phosphate (1:4)]
IC50 [1]: 1010 ± 580 nM | IC50 (Nipah virus): 64 nM | EC50 (Tacaribe virus): > 3200 nM | EC50 [2]: 1800 nM | Clint [3]: <7.4 | Dextromethorphan: compound, t1/2 normalized to dextromethorphan control [3]: >11.5 | t1/2 [3]: >3.1 h | guinea pigs found dead on days 14 and 17 post dose ([4]; ip): 2 of 3 | measurable plasma levels through ([4]; ip): 168 h | AUCinf Mean ([4]; ip, 125 mg/kg): 17,430 hr * ng/ml | AUClast Mean ([4]; ip, 125 mg/kg): 16,565 hr * ng/ml | Cmax Mean ([4]; ip, 125 mg/kg): 523 ng/mL | T1/2 ([4]; ip, 125 mg/kg): 72.7 h | measurable plasma levels through ([4]; po): 336 h | AUCinf Mean ([4]; po, 600 mg/kg): 58,783 hr * ng/ml | AUClast Mean ([4]; po, 600 mg/kg): 50,964 hr * ng/ml | Cmax Mean ([4]; po, 600 mg/kg): 1800 ng/mL | T1/2 ([4]; po, 600 mg/kg): 90.5 h | CC50 (in vitro): 3200 nM
